Results published in patent publication US20020142463A1, “Method for the mass propagation of adventitious roots of ginseng, camphor ginseng and wild ginseng by tissue culture and the improvement of their saponin content” (priority 2001, published 2002).

Columns and labels:
[1] = test system: root tissue of cultivated ginseng, camphor ginseng, and wild ginseng; assay: Effect of growth regulator pretreatment before culturing on saponin content and saponin ratio; type: cell-based; settings: pretreatment 1-10 hours before culturing at 1-100 mg/L
Description: (§1) The measurement of saponin content was followed by the standard method for the analysis of ginseng constituent of The Korean Ginseng Research Institute.
Among growth regulators, BA(benzyl adenine) 2iP, zeatin, […], TDZ, kinetin which are included in cytokinin groups was treated 1-10 hours before culturing the root tissue of cultivated ginseng, camphor ginseng, and wild ginseng at the concentration of 1-100 mg/L. Immediate after the pretreatment the saponin and the diol:triol content were compared and analyzed.

[2] = test system: adventitious root of wild ginseng; assay: Effect of added growth regulator on adventitious root propagation (wild ginseng); type: cell-based; parameters: unit not given here; settings: MS media, 3% sugar, pH6.0
Description: (§2) After adding 3% of sugar to the MS media and adjusting pH6.0, basal medium were made by adding 1 mg/L, 2 mg/L, 3 mg/L, 5 mg/L of each of the IBA, NAA and BSAA as auxin. These basal mediums were divided into a 1 L flask and a 5 L bioreactor.

[3] = test system: adventitious root of cultivated ginseng; assay: Effect of added growth regulator on adventitious root propagation (cultivated ginseng); type: cell-based, Panax ginseng C.A. Meyer; parameters: Cultivated ginseng (Increment rate of biomass): unit not given here; settings: for Cultivated ginseng (Increment rate of biomass): MS media, 3% sugar, pH6.0
Description: as §2

[4] = test system: adventitious root of cultivate ginseng, camphor ginseng, wild ginseng; assay: Effect of jasmonic acid and methyl jasmonic acid treatment on the saponin content of adventitious root in balloon shape bioreactor; type: cell-based
Text: as §1
While culturing the adventitious root of cultivate ginseng, camphor ginseng, wild ginseng in a balloon shape bioreactor, the saponin content in the adventitious root was examined at the initial time, 10 days before harvest, and after harvest with the treatment of various concentrations of jasmonic acid and methyl jasmonic acid.
The experiment was conducted under the conditions of pH 6.0 and the MS media added with 3% sugar and 2.0 mg/L IBA.
The saponin content in the adventitious root was measured for the root treated by various concentrations of jamonic acid or methyl jamonic acid of 0, 1, 2, 5, 10 mg/L 10 days before harvest and the root washed by tap water obtained from the MS media not containing sugar or the treated root by tap water which includes jasmonic acid or methyl jasmonic acid, for one week.

Molecule: CC(C)=CCNc1ncnc2nc[nH]c12 [2iP]
- remarks: effect on the saponin components [1]: zeatin show similar

Molecule: c1ccc(CNc2ncnc3nc[nH]c23)cc1 [BA, benzyl adenine]
- saponin content [1]: 1.23
- triol/diol [1]: 1.63

Molecule: O=C(O)Cc1c[se]c2ccccc12 [BSAA, benzo [b] selenienyl acetic acid]
- Wild ginseng (Increment rate of biomass) ([2]; growth regulator 1 mg/L): 5.0
- Wild ginseng (Increment rate of biomass) ([2]; growth regulator 2 mg/L): 12.5
- Wild ginseng (Increment rate of biomass) ([2]; growth regulator 3 mg/L): 11.7
- Wild ginseng (Increment rate of biomass) ([2]; growth regulator 5 mg/L): 3.9
- increment of the biomass (in words) ([3]; concentration of 2-3 mg/L, text summary of Table 1 (cultivated and wild ginseng)): remarkable increment
- Cultivated ginseng (Increment rate of biomass) ([3]; growth regulator 1 mg/L): 5.3
- Cultivated ginseng (Increment rate of biomass) ([3]; growth regulator 2 mg/L): 13.2
- Cultivated ginseng (Increment rate of biomass) ([3]; growth regulator 3 mg/L): 11.4
- Cultivated ginseng (Increment rate of biomass) ([3]; growth regulator 5 mg/L): 4.8

Molecule: O=C(O)CCCc1c[nH]c2ccccc12 [IBA]
- Wild ginseng (Increment rate of biomass) ([2]; growth regulator 1 mg/L): 4.3
- Wild ginseng (Increment rate of biomass) ([2]; growth regulator 2 mg/L): 6.8
- Wild ginseng (Increment rate of biomass) ([2]; growth regulator 3 mg/L): 5.7
- Wild ginseng (Increment rate of biomass) ([2]; growth regulator 5 mg/L): 4.2
- Cultivated ginseng (Increment rate of biomass) ([3]; growth regulator 1 mg/L): 4.5
- Cultivated ginseng (Increment rate of biomass) ([3]; growth regulator 2 mg/L): 6.7
- Cultivated ginseng (Increment rate of biomass) ([3]; growth regulator 3 mg/L): 6.5
- Cultivated ginseng (Increment rate of biomass) ([3]; growth regulator 5 mg/L): 3.8

Molecule: CC/C=C\C[C@H]1C(=O)CC[C@@H]1CC(=O)O [Jasmonic acid, jasmonic acid]
- Ginsenoside content Rb Group ([4]; jasmonic acid 1 mg/L): 13.29 mg. 1 g drymass
- Ginsenoside content Rg Group ([4]; jasmonic acid 1 mg/L): 2.83 mg. 1 g drymass
- Ginsenoside content Total content ([4]; jasmonic acid 1 mg/L): 16.09 mg. 1 g drymass
- Rb/Rg ([4]; jasmonic acid 1 mg/L): 4.68
- Ginsenoside content Rb Group ([4]; jasmonic acid 2 mg/L): 24.19 mg. 1 g drymass
- Ginsenoside content Rg Group ([4]; jasmonic acid 2 mg/L): 4.46 mg. 1 g drymass
- Ginsenoside content Total content ([4]; jasmonic acid 2 mg/L): 28.69 mg. 1 g drymass
- Rb/Rg ([4]; jasmonic acid 2 mg/L): 5.45
- Ginsenoside content Rb Group ([4]; jasmonic acid 5 mg/L): 34.69 mg. 1 g drymass
- Ginsenoside content Rg Group ([4]; jasmonic acid 5 mg/L): 4.15 mg. 1 g drymass
- Ginsenoside content Total content ([4]; jasmonic acid 5 mg/L): 38.82 mg. 1 g drymass
- Rb/Rg ([4]; jasmonic acid 5 mg/L): 8.43
- Ginsenoside content Rb Group ([4]; jasmonic acid 10 mg/L): 54.29 mg. 1 g drymass
- Ginsenoside content Rg Group ([4]; jasmonic acid 10 mg/L): 5.53 mg. 1 g drymass
- Ginsenoside content Total content ([4]; jasmonic acid 10 mg/L): 59.87 mg. 1 g drymass
- Rb/Rg ([4]; jasmonic acid 10 mg/L): 9.83

Molecule: O=C(O)Cc1cccc2ccccc12 [NAA, naphthalemeacetic acid]
- Wild ginseng (Increment rate of biomass) ([2]; growth regulator 1 mg/L): 3.4
- Wild ginseng (Increment rate of biomass) ([2]; growth regulator 2 mg/L): 6.8
- Wild ginseng (Increment rate of biomass) ([2]; growth regulator 3 mg/L): 6.2
- Wild ginseng (Increment rate of biomass) ([2]; growth regulator 5 mg/L): 3.8
- Cultivated ginseng (Increment rate of biomass) ([3]; growth regulator 1 mg/L): 3.2
- Cultivated ginseng (Increment rate of biomass) ([3]; growth regulator 2 mg/L): 7.2
- Cultivated ginseng (Increment rate of biomass) ([3]; growth regulator 3 mg/L): 6.7
- Cultivated ginseng (Increment rate of biomass) ([3]; growth regulator 5 mg/L): 4.2

Molecule: O=C(Nc1ccccc1)Nc1cnns1 [TDZ]
- remarks: effect on the saponin components [1]: zeatin show similar

Molecule: c1coc(CNc2ncnc3[nH]cnc23)c1 [kinetin]
- remarks: effect on the saponin components [1]: zeatin show similar

Molecule: CC/C=C\CC1C(=O)CCC1CC(=O)OC (stereo not drawn) [methyl jasmonic acid]
- saponin content [1]: 6.50
- triol/diol [1]: 2.40

Molecule: C/C(=C\CNc1ncnc2[nH]cnc12)CO [zeatin]
- remarks: effect on the saponin components [1]: zeatin show similar

Molecule: jasmonic acid
- saponin content [1]: 6.50
- triol/diol [1]: 2.40
